According to BigSolDB 2.1:

Brc1cn[nH]c1
solubility (mole fraction)
Conditions	in ethanol	in methanol	in water
283.15 K	0.265	0.203	0.0048
285.65 K	0.275	0.218	0.00501
288.15 K	0.287	0.234	0.00532
290.65 K	0.299	0.252	0.00562
293.15 K	0.311	0.27	0.00591
295.65 K	0.325	0.292	0.00623
298.15 K	0.339	0.312	0.0066
300.65 K	0.354	0.333	0.00696
303.15 K	0.372	0.355	0.00733
305.65 K	0.39	0.379	0.00772
308.15 K	0.409	0.402	0.00809
310.65 K	0.431	0.426	0.00848
313.15 K	0.457	0.452	0.00895
315.65 K	0.481	0.479	0.00941
318.15 K	0.506	0.503	0.00987
